Reference: patent US8247572B2, “Facilitated transport of bisphosphonates by vitamin C” (Duke University, priority 2005, dated 2012)

Tests used:
[1] = tested on: primary human chondrocytes; experiment: BP / BP-AA uptake assay in chondrocyte monolayer (HPLC); assay type: cell-based
Protocol: Uptake Assay Methods. Primary human chondrocytes were seeded at a density of 4.5×10^5 cells for 48 hours. The cells were washed with ascorbic acid transport buffer. The free bisphosphonate (BP) and the bisphosphonate conjugated to ascorbic acid (BP-AA) were solubilized in ascorbic acid transport buffer at 10 mM concentration. The cells were incubated with either the free BP or the BP-AA for an hour at 37° C./5% CO2. The cells were washed 4× with ice-cold PBS to remove any extracellular BP or BP-AA. The cells were then lysed in 250 μl ddH2O for 15 minutes on ice, sonicated for 5 minutes, and then scraped from the culture dish. The lysate was then analyzed by ion pair reverse phase HPLC with UV and electrochemical detection (ECD) as described below.
HPLC Methods. Ascorbic acid, free and conjugated, and risedronate analogs were determined by a modification of an ion pair reverse phase high-performance liquid chromatography method initially described by Vallano et al. (Vallano, P. T., Shugarts, S. B., Kline, W. F., Woolf, E. J., and Matuszewski, B. K., Determination of Risedronate in Human Urine by Column-Switching Ion-Pair High-Performance Liquid Chromatography with Ultraviolet Detection. J Chromatogr B Analyt Technol Biomed Life Sci, 2003, 794:23-33). The column consisted of a C18 packing, the mobile phase contained 8% acetonitrile and 92% of 0.005M Q8 (1-octyltriethylammonium phosphate [Regis Technologies, Morton Grove, Ill.]) and 1 mM etidronate (1-hydroxyethylidene-1,1-diphosphonic acid [Strem Chemicals, Newburyport, Mass.]) in a sodium phosphate buffer, pH 6.2, and was pumped at […]. The injection volume was 100 μl and detection was at 262 nm (UV) and 0.7V (ECD).

[2] = tested on: primary human chondrocytes; experiment: Ascorbic acid transport assay in isolated primary human chondrocytes; assay type: cell-based; conditions: for ability to compete with L-14C-Asc for transport: 2 mM unlabeled competitor; for suppression of L-14C-Asc transport by unlabeled competitor: 2 mM competitor, versus no competitor
Protocol: Ascorbic Acid Transport Assay in Isolated Primary Human Chondrocytes. AA transport was measured using a modified version of the uptake assay published by Wilson and Dixon (J. X. Wilson, S. J. Dixon, High-Affinity Sodium-Dependent Uptake of Ascorbic Acid by Rat Osteoblasts, J. Mem. Biol. 111 (1989) 83-91). Primary human chondrocytes were seeded at a density of 4.5×10^5 cells/well on a 6-well plate (or 2.25×10^5 cells/well on a 12-well plate for the kinetic experiments). Prior to the transport assay, cells were plated for 48 hours in DMEM/F12, containing 10% FCS but no AA. Cells were washed in transport buffer containing: 134 mM NaCl, 5.4 mM KCl, 1.8 mM CaCl2, 0.8 mM MgSO4, 10 mM D-glucose, 20 mM HEPES, pH 7.3 with NaOH. […] The standard AA transport assay conditions were 37° C./5% CO2 for 10 minutes. AA uptake was terminated by washing the cells four-times in ice-cold PBS. The cells were lysed with Puregene Cell Lysis Solution (Gentra Systems) and scintillation counting was performed in Uniscint BD (National Diagnostics).
In experiments with sodium free transport buffer, iso-osmotic concentrations of LiCl were substituted for NaCl. […]

[3] = tested on: primary human chondrocytes; experiment: Dehydroascorbate transport assay in isolated primary human chondrocytes; assay type: cell-based; conditions: for ability to compete with L-14C-DHA transport: 2 mM unlabeled competitor; for mode of inhibition of L-14C-DHA transport (Dixon plot): data not shown; for inhibition of DHA transport: 0.1 mM inhibitor, p<0.001; for increase in L-14C-DHA uptake versus 21% oxygen tension: 24 hours
Protocol: Dehydroascorbate Transport Assay in Isolated Primary Human Chondrocytes. DHA transport was measured using a modified version of the uptake assay published by Wilson and Dixon (Wilson J X, Dixon S J. High-Affinity Sodium-Dependent Uptake of Ascorbic Acid by Rat Osteoblasts. J. Mem. Biol. 1989; 111:83-91). Primary human chondrocytes were seeded at a density of 4.5×10^5 cells/well on a 6-well plate. Prior to the transport assay, cells were plated for 48 hours in DMEM/F12, containing 10% FCS but no AA or DHA. Cells were washed in transport buffer containing: 134 mM LiCl, 5.4 mM KCl, 1.8 mM CaCl2, 0.8 mM MgSO4, 20 mM HEPES, pH 7.3 with KOH. DHA uptake was assessed by incubating the chondrocytes in transport buffer containing 189 μM L-^14C-dehydroascorbate (L-^14C-DHA). […] The standard DHA transport assay conditions were 37° C./5% CO2/21% O2 for 10 min. DHA uptake was terminated by washing the cells four-times in ice-cold PBS. […] The total pmol of L-^14C-DHA transported was calculated using the total dpm of L-^14C-DHA transported and the specific activity of the radiolabel.
Matrix Biol. 2002; 21:175-184). Stock solutions of different unlabeled DHA forms were generated in the same manner as the L-^14C-DHA. […]

[4] = tested on: human articular cartilage explants; conditions: 50 µM
Source text: Cartilage explants were isolated from human knee articular cartilage surgical waste tissues at the time of knee replacement surgery (n=5). Cartilage was harvested from non-lesioned areas, using a 2 mm diameter micro dissecting trephine (Biomedical Research Instruments, Rockville, Md.). A group of five cartilage plugs was pooled to constitute one sample. Each sample was paired with a corresponding sample from the same specimen and the same sites. The cartilage plugs were weighed and then transferred to a 24-well plate, containing 1 ml wash media (described in the chondrocyte isolation procedure). The cartilage plugs were incubated in 1 ml DMEM/F12 (Gibco, Grand Island, N.Y.) with 10% FCS (Gibco) and no AA for 48 hours at 37° C./5% CO2, prior to the procedures below.
The cartilage explants were washed with PBS and half of the samples were transferred to 1.5 ml centrifuge tubes with a drop of PBS. The tubes were frozen in liquid nitrogen for three minutes and thawed at 37° C. for five minutes. This freeze/thaw procedure was performed for a total of three cycles. The dead explants were transferred back to the 24-well plates.
Explant Ascorbic Acid Transport Assay. […] Samples were processed to isolate the cells from the matrix fraction (see Intracellular versus Extracellular AA) or counted for radioactivity by transferring the whole explants to glass scintillation vials and solubilizing the samples overnight at room temperature in 0.5 ml Solulene 350 (Perkin Elmer Life and Analytical Services, Boston, Mass.). Hionic Fluor scintillation fluid (5 ml, Perkin Elmer Life and Analytical Services) was added, and radioactivity was counted in the live and dead explants, using a scintillation counter.
Explant isolation, explant treatments, and the explant AA transport assay (through the PBS wash step) were performed, followed by the chondrocyte isolation procedure described above. After the cell fraction was isolated from the matrix, the cells were washed, then 15 μl of the cells were counted on a hemacytometer, in order to determine the total number of cells in the cell fraction. […]

[5] = 100 μM inhibitor, 10 minutes, p<0.001

O=C(CCC(=O)OCC(O)C1OC(=O)C(O)=C1O)Nc1ccc(NC(P(=O)(O)O)P(=O)(O)O)nc1 [BP-AA, 6-O-{N-[6-[(bisphosphonomethyl)amino]pyridin-3-yl]}succinyl-L-ascorbic acid]
transport of BP-AA versus AA alone ([1]; 10 mM BP-AA, one hour): 143 fold | amount gaining entry to chondrocytes in monolayer ([1]; 10 mM, one hour, 37° C.): 2281 nmol/mg protein | inhibition at 10000 µM ([1]; Homo sapiens, Chondrocyte, 1 h, 10 mM BP-AA, one hour, no sodium, read-out: inhibition of BP-AA uptake in the absence of sodium): 50%

O=C1O[C@H]([C@H](O)CO)C(O)=C1O [D-Asc, D-isoascorbic acid]
ability to compete with L-14C-Asc for transport ([2]; 10 minutes): unable to effectively compete | ability to compete with L-14C-DHA transport ([3]; 10 min): able to effectively compete | mode of inhibition of L-14C-DHA transport (Dixon plot) [3]: non-competitive inhibitors

O=C1O[C@@H]([C@H](O)CO)C(=O)C1=O [D-DHA, D-dehydroascorbate]
ability to compete with L-14C-DHA transport ([3]; 10 min): able to effectively compete

O=C1OC(C(O)CO)C(=O)C1=O [DHA, L-dehydroascorbate]
ability to compete with L-14C-Asc for transport ([2]; 10 minutes): unable to effectively compete | ability to compete with L-14C-DHA transport ([3]; 10 min): able to effectively compete | increase in DHA transport versus 21% oxygen tension ([3]; human, 10 min, 189 µM, pH 7.3): 2.7 fold | increase of DHA transport versus 21% oxygen tension ([3]; human, 10 min, 189 µM, pH 7.3): 3.2 fold | increase of DHA transport versus 21% oxygen tension, mean ([3]; human, 10 min, 189 µM, pH 7.3): 3.5 fold | passive diffusion of DHA as share of transport under optimized conditions ([3]; human, 10 min, 189 µM, pH 7.3): 11%

O=C1O[C@H]([C@@H](O)CO)C(O)=C1O [L-Asc, L-ascorbic acid]
calculated intracellular concentration of total AA, deep zone cells [4]: 45 mM | calculated intracellular concentration of total AA, middle zone cells [4]: 51 mM | calculated intracellular concentration of total AA, superficial zone cells [4]: 67 mM | vMax for AA transport in chondrocytes ([2]; 0-500 μM L-14C-Asc, Michaelis-Menten): 148+/−35 pmol L-^14C-Asc/10^6 cells/10 minutes | Km ([2]; 0-500 μM L-14C-Asc, Michaelis-Menten, read-out: Km for AA transport in chondrocytes): 179 µM | concentration of unlabeled L-Asc at which the transporter is fully saturated ([2]; 200 μM L-14C-Asc, 10 minutes): approximately 1000 μM | suppression of L-14C-Asc transport by unlabeled competitor ([2]; 10 minutes, p<0.001): approximately 60% | ability to compete with L-14C-DHA transport ([3]; 10 min): able to effectively compete | mode of inhibition of L-14C-DHA transport (Dixon plot) [3]: non-competitive inhibitors

O=C1O[C@H]([C@H](O)CO)C([O-])=C1O.[Na+] [Na D-Asc, Na D-isoascorbate]
ability to compete with L-14C-Asc for transport ([2]; 10 minutes): unable to effectively compete | ability to compete with L-14C-DHA transport ([3]; 10 min): able to effectively compete

O=C1O[C@H]([C@@H](O)CO)C([O-])=C1O.[Na+] [Na L-Asc, Na L-ascorbate]
suppression of L-14C-Asc transport by unlabeled competitor ([2]; 10 minutes, p<0.001): 75% | ability to compete with L-14C-DHA transport ([3]; 10 min): able to effectively compete

C=C1[C@@H](C)[C@H]2[C@H](Cc3ccccc3)NC(=O)[C@]23OC(=O)/C=C/[C@H](O)CCC[C@@H](C)C/C=C/[C@H]3[C@@H]1O [cytochalasin B]
inhibition of L-14C-Asc transport [2, 5]: 40% | inhibition of DHA transport ([3]; 10 min): 95%

C[C@H]1C/C=C/[C@H]2[C@@H]3O[C@]3(C)[C@@H](C)[C@H]3[C@H](Cc4ccccc4)NC(=O)[C@]32OC(=O)O/C=C/[C@@](C)(O)C1=O [cytochalasin E]
inhibition of L-14C-Asc transport [2, 5]: 35% | inhibition of DHA transport ([3]; 10 min): 40%

O=C1C(CC[S+]([O-])c2ccccc2)C(=O)N(c2ccccc2)N1c1ccccc1 (stereo not shown) [sulfinpyrazone]
inhibition at 100 µM ([2]; Homo sapiens, Chondrocyte, 10 min, 100 μM inhibitor, 10 minutes, p<0.001, read-out: inhibition of L-14C-Asc transport): ~65% | inhibition at 100 µM ([1]; Homo sapiens, Chondrocyte, 0.75 h, 100 μM sulfinpyrazone, 45 minutes in advance of 10 mM BP-AA): ~75%

L-^14C-dehydroascorbate [L-^14C-DHA]
increase in L-14C-DHA uptake versus 21% oxygen tension ([3]; 2.5% oxygen, absence of glucose): 1.6 fold | increase in L-14C-DHA uptake versus 21% oxygen tension ([3]; 5% oxygen): no increase | 14C-DHA Uptake (change versus 21% oxygen tension) ([3]; O2 tension 5%, 24 hrs): No change

Na D-dehydroascorbate [Na D-DHA]
ability to compete with L-14C-DHA transport ([3]; 10 min): unable to compete

Na L-dehydroascorbate [Na L-DHA]
ability to compete with L-14C-DHA transport ([3]; 10 min): able to effectively compete
